Measurements as given in patent publication US9963464B2, “Macrocyclic compounds” (Bayer Pharma Aktiengesellschaft, priority 2014, dated 2018).
Like-named read-outs stand apart in the source and are kept apart here.

Key:
CDK2/CycE = molecular target: T1, CDK2/CycE (Homo sapiens, UniProt P24941); experiment: CDK2/CycE kinase assay (TR-FRET, Method 2a); assay type: biochemical; conditions: 10 μM ATP
T1 construct: GST; purchased ProQinase GmbH (Freiburg, Germany); host or cells: insect cells (Sf9)
Excerpt: 2a. CDK2/CycE Kinase Assay:
CDK2/CycE-inhibitory activity of compounds of the present invention was quantified employing the CDK2/CycE TR-FRET assay as described in the following paragraphs:
Recombinant fusion proteins of GST and human CDK2 and of GST and human CycE, expressed in insect cells (Sf9) and purified by Glutathion-Sepharose affinity chromatography, were purchased from ProQinase GmbH (Freiburg, Germany). As substrate for the kinase reaction biotinylated peptide biotin-Ttds-YISPLKSPYKISEG (C-terminus in amid form) was used which can be purchased e.g. from the company JERINI Peptide Technologies (Berlin, Germany).
For the assay 50 nl of a 100 fold concentrated solution of the test compound in DMSO was pipetted into a black low volume 384 well microtiter plate (Greiner Bio-One, Frickenhausen, Germany), 2 μl of a solution of CDK2/CycE in aqueous assay buffer [50 mM Tris/HCl pH 8.0, 10 mM MgCl2, 1.0 mM dithiothreitol, 0.1 mM sodium ortho-vanadate, 0.01% (v/v) Nonidet-P40 (Sigma)] were added and the mixture was incubated for 15 min at 22° C. to allow pre-binding of the test compounds to the enzyme before the start of the kinase reaction. […] The concentration of CDK2/CycE was adjusted depending of the activity of the enzyme lot and was chosen appropriate to have the assay in the linear range, typical concentrations were in the range of 130 ng/mL. The reaction was stopped by the addition of 5 μl of a solution of TR-FRET detection reagents (0.2 μM streptavidine-XL665 [Cisbio Bioassays, Codolet, France] and 1 nM anti-RB(pSer807/pSer811)-antibody from BD Pharmingen [#558389] and 1.2 nM LANCE EU-W1024 labeled anti-mouse IgG antibody [Perkin-Elmer, product no. AD0077]) in an aqueous EDTA-solution (100 mM EDTA, 0.2% (w/v) bovine serum albumin in 100 mM HEPES pH 7.5).
The resulting mixture was incubated 1 h at 22° C. to allow the formation of complex between the phosphorylated biotinylated peptide and the detection reagents. Subsequently the amount of phosphorylated substrate was evaluated by measurement of the resonance energy transfer from the Eu-chelate to the streptavidine-XL. Therefore, the fluorescence emissions at 620 nm and 665 nm after excitation at 350 nm was measured in a TR-FRET reader, e.g. a Rubystar (BMG Labtechnologies, Offenburg, Germany) or a Viewlux (Perkin-Elmer). The ratio of the emissions at 665 nm and at […] was taken as the measure for the amount of phosphorylated substrate. The data were normalised (enzyme reaction without inhibitor=0% inhibition, all other assay components but no enzyme=100% inhibition).

HeLa cells = experiment: Proliferation assay HeLa; assay type: cell-based, human; conditions: 4 days, crystal violet, read-out: Inhibition of HeLa cell proliferation IC50
Protocol: (§1) Cultivated tumour cells (HeLa, human cervical tumour cells, ATCC CCL-2; NCI-H460, human non-small cell lung carcinoma cells, ATCC HTB-177; A2780, human ovarian carcinoma cells, ECACC #93112519; DU 145, hormone-independent human prostate carcinoma cells, ATCC HTB-81; HeLa-MaTu-ADR, multidrug-resistant human cervical carcinoma cells, EPO-GmbH Berlin; Caco-2, human colorectal carcinoma cells, ATCC HTB-37; B16F10, mouse melanoma cells, ATCC CRL-6475) were plated at a density of 5,000 cells/well (DU145, HeLa-MaTu-ADR), 3,000 cells/well (NCI-H460, HeLa), 2,500 cells/well (A2780), 1,500 cells/well (Caco-2), or 1,000 cells/well (B16F10) in a 96-well multititer plate in 200 μL of their respective growth medium supplemented 10% fetal calf serum. After 24 hours, the cells of one plate (zero-point plate) were stained with crystal violet (see below), while the medium of the other plates was replaced by fresh culture medium (200 μl), to which the test substances were added in various concentrations (0 μM, as well as in the range of 0.001-10 μM). The cells were incubated for 4 days in the presence of test substances. Cell proliferation was determined by staining the cells with crystal violet: the cells were fixed by adding 20 μl/measuring point of an 11% glutaric aldehyde solution for 15 minutes at room temperature. After three washing cycles of the fixed cells with water, the plates were dried at room temperature. The cells were stained by adding 100 μl/measuring point of a 0.1% crystal violet solution (pH 3.0). After three washing cycles of the stained cells with water, the plates were dried at room temperature. The dye was dissolved by adding 100 μl/measuring point of a 10% acetic acid solution. The extinction was determined by photometry at a wavelength of 595 nm. The change of cell number, in percent, was calculated by normalization of the measured values to the extinction values of the zero-point plate (=0%) and the extinction of the untreated (0 μm) cells (=100%). The IC50 values (inhibitory concentration at 50% of maximal effect) were determined by means of a 4 parameter fit. Non-adherent MOLM-13 human acute myeloid leukemia cells (DSMZ ACC 554) were seeded at a density of 5,000 cells/well in a 96-well multititer plate in 100 μL of growth medium supplemented 10% fetal calf serum. After 24 hours, cell viability of one plate (zero-point plate) was determined with the Cell Titre-Glo Luminescent Cell Viability Assay (Promega), while 50 μL of test compound containing medium was added to the wells of the other plates (final concentrations in the range of 0.001-1 μM and DMSO controls). Cell viability was assessed after 72-hour exposure with the Cell Titre-Glo Luminescent Cell Viability Assay (Promega). IC50 values (inhibitory concentration at 50% of maximal effect) were determined by means of a 4 parameter fit on measurement data which were normalized to vehicle (DMSO) treated cells (=100%) and measurement readings taken immediately before compound exposure (=0%).

HeLa-MaTu-ADR cells = experiment: Proliferation assay HeLa-MaTu-ADR; assay type: cell-based, human; conditions: 4 days, crystal violet, read-out: Inhibition of HeLa-MaTu-ADR cell proliferation IC50
Protocol: as §1

NCI-H460 cells = experiment: Proliferation assay NCI-H460; assay type: cell-based, human; conditions: 4 days, crystal violet, read-out: Inhibition of NCI-H460 cell proliferation IC50
Protocol: as §1

DU145 cells = experiment: Proliferation assay DU145; assay type: cell-based, human; conditions: 4 days, crystal violet, read-out: Inhibition of DU145 cell proliferation IC50
Protocol: as §1

Caco-2 cells = experiment: Proliferation assay Caco-2; assay type: cell-based, human; conditions: 4 days, crystal violet, read-out: Inhibition of Caco-2 cell proliferation IC50
Protocol: as §1

IC50 (CDK2/CycE) | IC50 (HeLa cells; Homo sapiens, HeLa, 96 h) | IC50 (HeLa-MaTu-ADR cells; Homo sapiens, 96 h) | IC50 (NCI-H460 cells; Homo sapiens, NCI-H460, 96 h) | IC50 (DU145 cells; Homo sapiens, DU-145, 96 h) | IC50 (Caco-2 cells; Homo sapiens, Caco-2, 96 h) | IC50 (HeLa cells) | IC50 (HeLa-MaTu-ADR cells) | IC50 (NCI-H460 cells) | IC50 (DU145 cells) | IC50 (Caco-2 cells) | IC50 (HeLa cells; trifluoroacetate) | IC50 (HeLa-MaTu-ADR cells; trifluoroacetate) | IC50 (NCI-H460 cells; trifluoroacetate) | IC50 (DU145 cells; trifluoroacetate) | IC50 (Caco-2 cells; trifluoroacetate) | Structure (SMILES)
0.0027 µM | 0.031 µM | 0.005 µM | 0.014 µM | 0.004 µM | 0.005 µM | – | – | – | – | – | – | – | – | – | – | CS(=N)(=O)Cc1cc2nc(c1)OCCCOc1cc(F)ccc1-c1cc(ncc1F)N2 (single isomer, unassigned; enantiomer 1) [Example 6, 15,19-Difluoro-8-[(S-methylsulfonimidoyl)methyl]-3,4-dihydro-2H,11H-10,6-(azeno)-12,16-(metheno)-1,5,11,13-benzodioxadiazacyclooctadecine; Enantiomer 1]
0.0024 µM | – | – | – | – | – | 0.031 µM | 0.005 µM | 0.017 µM | 0.005 µM | 0.006 µM | – | – | – | – | – | CS(=N)(=O)Cc1cc2nc(c1)OCCCOc1cc(F)ccc1-c1cc(ncc1F)N2 (single isomer, unassigned; enantiomer 2) [Example 7, 15,19-Difluoro-8-[(S-methylsulfonimidoyl)methyl]-3,4-dihydro-2H,11H-10,6-(azeno)-12,16-(metheno)-1,5,11,13-benzodioxadiazacyclooctadecine; Enantiomer 2]
0.041 µM | 0.086 µM | 0.07 µM | 0.039 µM | 0.088 µM | < 0.03 µM | – | – | – | – | – | – | – | – | – | – | CSCc1cc2nc(c1)OCCCOc1cc(F)ccc1-c1cc(ncc1F)N2 [Example 3, 15,19-Difluoro-8-[(methylsulfanyl)methyl]-3,4-dihydro-2H,11H-10,6-(azeno)-12,16-(metheno)-1,5,11,13-benzodioxadiazacyclooctadecine]
0.0135 µM | – | – | – | – | – | – | – | – | – | – | 0.082 µM | 0.21 µM | 0.391 µM | 0.387 µM | 0.267 µM | CS(=O)(Cc1cc2nc(c1)OCCCOc1cc(F)ccc1-c1cc(ncc1F)N2)=NS(=O)(=O)CCN.O=C(O)C(F)(F)F (racemic) [Example 24, (rac)-2-{[{[15,19-difluoro-3,4-dihydro-2H,11H-10,6-(azeno)-12,16-(metheno)-1,5,11,13-benzodioxadiazacyclooctadecin-8-yl]methyl}(methyl)oxido-λ^6-sulfanylidene]sulfamoyl}ethanaminium trifluoroacetate]
0.0978 µM | 0.062 µM | 0.077 µM | 0.056 µM | 0.111 µM | 0.03 µM | – | – | – | – | – | – | – | – | – | – | CSCc1cc2cc(c1)OCCCOc1cc(F)ccc1-c1nc(ncc1F)N2 [Example 2, 15,19-Difluoro-8-[(methylsulfanyl)methyl]-3,4-dihydro-2H,11H-12,16-(azeno)-10,6-(metheno)-1,5,11,13-benzodioxadiazacyclooctadecine]
0.0056 µM | 0.011 µM | 0.025 µM | 0.031 µM | 0.036 µM | 0.021 µM | – | – | – | – | – | – | – | – | – | – | CCNC(=O)N=S(C)(=O)Cc1cc2nc(c1)OCCCOc1cc(F)ccc1-c1cc(ncc1F)N2 (racemic) [Example 17, (rac)-1-[{[15,19-difluoro-3,4-dihydro-2H,11H-10,6-(azeno)-12,16-(metheno)-1,5,11,13-benzodioxadiazacyclooctadecin-8-yl]methyl}(methyl)oxido-λ^6-sulfanylidene]-3-ethylurea]
0.18 µM | 0.094 µM | 0.185 µM | 0.186 µM | 0.159 µM | 0.158 µM | – | – | – | – | – | – | – | – | – | – | CS(=N)(=O)Cc1cc2nc(c1)OCCOc1cc(F)ccc1-c1cc(ncc1F)N2 (racemic) [Example 11, (rac)-14,18-difluoro-7-[(S-methylsulfonimidoyl)methyl]-2,3-dihydro-10H-9,5-(azeno)-11,15-(metheno)-1,4,10,12-benzodioxadiazacycloheptadecine]
0.0046 µM | 0.004 µM | 0.01 µM | 0.012 µM | 0.011 µM | 0.01 µM | – | – | – | – | – | – | – | – | – | – | C[S+]([O-])Cc1cc2nc(c1)OCCCOc1cc(F)ccc1-c1cc(ncc1F)N2 (racemic) [Example 4, (rac)-15,19-Difluoro-8-[(methylsulfinyl)methyl]-3,4-dihydro-2H,11H-10,6-(azeno)-12,16-(metheno)-1,5,11,13-benzodioxadiazacyclooctadecine]
0.01 µM | 0.105 µM | 0.298 µM | 0.395 µM | 0.386 µM | 0.329 µM | – | – | – | – | – | – | – | – | – | – | NCCS(=O)(=O)Cc1cc2nc(c1)OCCCOc1cc(F)ccc1-c1cc(ncc1F)N2 [Example 26, 2-({[15,19-difluoro-3,4-dihydro-2H,11H-10,6-(azeno)-12,16-(metheno)-1,5,11,13-benzodioxadiazacyclooctadecin-8-yl]methyl}sulfonyl)ethanamine]
